Source: patent US12338220B2, “Antiviral pyrazolopiridinone compounds” (Novartis AG, priority 2019, dated 2025)
Read-outs that look alike come from different tables or passages of the source.

Legend:
CMV-polymerase = CMV-polymerase (Human cytomegalovirus (strain AD169) (HHV-5) (Human herpesvirus 5), UniProt P08546); assay: biochemical; conditions: read-out: CMV-polymerase Biochemical IC50
CMV = assay: microbe, parasite or virus in culture; assay type: cell-based
[1] = Human betaherpesvirus 5, 72 h, read-out: CMV-Luc Cellular EC50, NN-NHDF cells, MOI 1, 72 hrs
[2] = NN-NHDF cells, MOI 1, 72 hrs, read-out: CMV-Luc Cellular EC50

**Q.** With `CC1Cc2c(C(=O)NCc3ccc(C#N)cc3)nn(C)c2C(=O)N1CC1(S(C)(=O)=O)CC1` (single isomer, unassigned) [Example 41, (R)- or (S)-N-(4-cyanobenzyl)-1,5-dimethyl-6-((1-(methylsulfonyl)cyclopropyl)methyl)-7-oxo-4,5,6,7-tetrahydro-1H-pyrazolo[3,4-c]pyridine-3-carboxamide] as the compound, how does the IC50 (CMV-polymerase) read?
**A.** Its IC50 is 9.77 µM.

**Q.** `CC(N)COCC(C)(C)S(=O)(=O)C1(CN2CCc3c(C(=O)NCc4ccc(Cl)cc4)nn(C)c3C2=O)CC1` (single isomer, unassigned) [Example 97, (R)- or (S)-6-((1-((1-(2-Aminopropoxy)-2-methylpropan-2-yl)sulfonyl)cyclopropyl)methyl)-N-(4-chlorobenzyl)-1-methyl-7-oxo-4,5,6,7-tetrahydro-1H-pyrazolo[3,4-c]pyridine-3-carboxamide] was tested. Which EC50 (CMV; [1]) did it give?
**A.** The EC50 was 0.008 µM.

**Q.** With `CC(N)COCC(C)(C)S(=O)(=O)C1(CN2CCc3c(C(=O)NCc4ccc(Cl)cc4)nn(C)c3C2=O)CC1` (single isomer, unassigned) [Example 98, (R)- or (S)-6-((1-((1-(2-Aminopropoxy)-2-methylpropan-2-yl)sulfonyl)cyclopropyl)methyl)-N-(4-chlorobenzyl)-1-methyl-7-oxo-4,5,6,7-tetrahydro-1H-pyrazolo[3,4-c]pyridine-3-carboxamide] as the compound, how does the EC50 (CMV; read-out: CMV-Luc Cellular EC50, NN-NHDF cells, MOI 1, 72 hrs) read?
**A.** The EC50 was 0.008 µM.

**Q.** Which EC50 (CMV; [1]) does the source give for `CC(N)COCC(C)(C)S(=O)(=O)C1(CN2CCc3c(C(=O)NCc4ccc(C#N)cc4)nn(C)c3C2=O)CC1` (single isomer, unassigned) [Example 99, (R)- or (S)-6-((1-((1-(2-Aminopropoxy)-2-methylpropan-2-yl)sulfonyl)cyclopropyl)methyl)-N-(4-cyanobenzyl)-1-methyl-7-oxo-4,5,6,7-tetrahydro-1H-pyrazolo[3,4-c]pyridine-3-carboxamide] here?
**A.** Its EC50 is 0.014 µM.

**Q.** What does the source list for `Cn1nc(C(=O)NCc2ccc(C#N)cc2)c2c1C(=O)N(CC1(S(=O)(=O)N3CCC(C)(O)C3)CC1)CC2` (single isomer, unassigned) [Example 130, (R)- or (S)-N-(4-Cyanobenzyl)-6-((1-((3-hydroxy-3-methylpyrrolidin-1-yl)sulfonyl)cyclopropyl)methyl)-1-methyl-7-oxo-4,5,6,7-tetrahydro-1H-pyrazolo[3,4-c]pyridine-3-carboxamide]?
**A.** IC50 (CMV-polymerase): 0.007 µM; EC50 (CMV; [1]): 0.163 µM

**Q.** `Cn1nc(C(=O)NCc2ccc(C#N)cc2)c2c1C(=O)N(CC1(S(=O)(=O)N3CCC(C)(O)C3)CC1)CC2` (single isomer, unassigned) [Example 131, (R)- or (S)-N-(4-Cyanobenzyl)-6-((1-((3-hydroxy-3-methylpyrrolidin-1-yl)sulfonyl)cyclopropyl)methyl)-1-methyl-7-oxo-4,5,6,7-tetrahydro-1H-pyrazolo[3,4-c]pyridine-3-carboxamide] was tested. Which IC50 (CMV-polymerase) did it give?
**A.** Its IC50 is 0.016 µM.

**Q.** How did the EC50 (CMV; [1]) turn out when `Cn1nc(C(=O)NCc2ccc(C#N)cc2)c2c1C(=O)N(CC1(S(=O)(=O)C3CCOC3)CC1)CC2` (single isomer, unassigned) [Example 170, (R)- or (S)-N-(4-Cyanobenzyl)-1-methyl-7-oxo-6-((1-((tetrahydrofuran-3-yl)sulfonyl)cyclopropyl)methyl)-4,5,6,7-tetrahydro-1H-pyrazolo[3,4-c]pyridine-3-carboxamide] was run?
**A.** Its EC50 is 0.124 µM.

**Q.** `Cn1nc(C(=O)NCc2ccc(C#N)cc2)c2c1C(=O)N(CC1(S(=O)(=O)C(C)(CN)CO)CC1)CC2` (single isomer, unassigned) [Example 184, (R)- or (S)-6-((1-((1-Amino-3-hydroxy-2-methylpropan-2-yl)sulfonyl)cyclopropyl)methyl)-N-(4-cyanobenzyl)-1-methyl-7-oxo-4,5,6,7-tetrahydro-1H-pyrazolo[3,4-c]pyridine-3-carboxamide] was tested. Which EC50 (CMV; [1]) did it give?
**A.** Its EC50 is 0.165 µM.

**Q.** For `Cn1nc(C(=O)NCc2ccc(C#N)cc2)c2c1C(=O)N(CC1(S(=O)(=O)C(C)(C)C(O)CN)CC1)CC2` (single isomer, unassigned) [Example 199, (R)- or (S)-6-((1-((4-Amino-3-hydroxy-2-methylbutan-2-yl)sulfonyl)cyclopropyl)methyl)-N-(4-cyanobenzyl)-1-methyl-7-oxo-4,5,6,7-tetrahydro-1H-pyrazolo[3,4-c]pyridine-3-carboxamide], which EC50 (CMV; [1]) is on record?
**A.** Its EC50 is 0.019 µM.

**Q.** What about the EC50 (CMV; Human betaherpesvirus 5, read-out: Cellular activity against CMV (EC50), Table 18) of the same compound?
**A.** Its EC50 is 0.018 µM.

**Q.** `CNCC(O)C(C)(C)S(=O)(=O)C1(CN2CCc3c(C(=O)NCc4ccc(C#N)cc4)nn(C)c3C2=O)CC1` (single isomer, unassigned) [Example 202, (R)- or (S)-N-(4-Cyanobenzyl)-6-((1-((3-hydroxy-2-methyl-4-(methylamino)butan-2-yl)sulfonyl)cyclopropyl)methyl)-1-methyl-7-oxo-4,5,6,7-tetrahydro-1 H-pyrazolo[3,4-c]pyridine-3-carboxamide] was tested. Which EC50 (CMV; [1]) did it give?
**A.** The EC50 was 0.03 µM.

**Q.** How did the EC50 (CMV; [1]) turn out when `CNCC(O)C(C)(C)S(=O)(=O)C1(CN2CCc3c(C(=O)NCc4ccc(Cl)cc4)nn(C)c3C2=O)CC1` (single isomer, unassigned) [Example 204, (R)- or (S)-N-(4-Chlorobenzyl)-6-((1-((3-hydroxy-2-methyl-4-(methylamino)butan-2-yl)sulfonyl)cyclopropyl)methyl)-1-methyl-7-oxo-4,5,6,7-tetrahydro-1 H-pyrazolo[3,4-c]pyridine-3-carboxamide] was run?
**A.** The EC50 was 0.011 µM.

**Q.** Which EC50 (CMV; [1]) does the source give for `CN(C)CC(O)C(C)(C)S(=O)(=O)C1(CN2CCc3c(C(=O)NCc4ccc(Cl)cc4)nn(C)c3C2=O)CC1` (single isomer, unassigned) [Example 206, (R)- or (S)-N-(4-Chlorobenzyl)-6-((1-((4-(dimethylamino)-3-hydroxy-2-methylbutan-2-yl)sulfonyl)cyclopropyl)methyl)-1-methyl-7-oxo-4,5,6,7-tetrahydro-1H-pyrazolo[3,4-c]pyridine-3-carboxamide] here?
**A.** The EC50 was 0.071 µM.

**Q.** What does the source list for `Cn1nc(C(=O)NCc2ccc(F)cc2)c2c1C(=O)N(CC1(S(=O)(=O)C3CC3)CC1)CC2` [Example 5, 6-((1-(Cyclopropylsulfonyl)cyclopropyl)methyl)-N-(4-fluorobenzyl)-1-methyl-7-oxo-4,5,6,7-tetrahydro-1H-pyrazolo[3,4-c]pyridine-3-carboxamide]?
**A.** IC50 (CMV-polymerase): 0.03 µM; EC50 (CMV; [1]): 0.284 µM

**Q.** With `CN(Cc1ccc(C#N)cc1)C(=O)c1nn(C)c2c1CCN(CC1(S(=O)(=O)C3CC3)CC1)C2=O` [Example 6, N-(4-Cyanobenzyl)-6-((1-(cyclopropylsulfonyl)cyclopropyl)methyl)-N,1-dimethyl-7-oxo-4,5,6,7-tetrahydro-1H-pyrazolo[3,4-c]pyridine-3-carboxamide] as the compound, how does the IC50 (CMV-polymerase) read?
**A.** The IC50 was 0.03 µM.

**Q.** What about the EC50 (CMV; [1]) of the same compound?
**A.** Its EC50 is 0.77 µM.

**Q.** `Cc1ccc(CNC(=O)c2nn(C)c3c2CCN(CC2(S(=O)(=O)C4CC4)CC2)C3=O)cc1` [Example 8, 6-((1-(Cyclopropylsulfonyl)cyclopropyl)methyl)-1-methyl-N-(4-methylbenzyl)-7-oxo-4,5,6,7-tetrahydro-1H-pyrazolo[3,4-c]pyridine-3-carboxamide] was tested. Which IC50 (CMV-polymerase) did it give?
**A.** Its IC50 is 0.035 µM.

**Q.** What about the EC50 (CMV; [1]) of the same compound?
**A.** Its EC50 is 0.339 µM.

**Q.** Which results are given for `Cn1nc(C(=O)NCc2ccc(C#N)c(F)c2)c2c1C(=O)N(CC1(S(=O)(=O)C3CC3)CC1)CC2` [Example 9, N-(4-Cyano-3-fluorobenzyl)-6-((1-(cyclopropylsulfonyl)cyclopropyl)methyl)-1-methyl-7-oxo-4,5,6,7-tetrahydro-1H-pyrazolo[3,4-c]pyridine-3-carboxamide]?
**A.** IC50 (CMV-polymerase): 0.001 µM; EC50 (CMV; [1]): 0.031 µM

**Q.** Which IC50 (CMV-polymerase) does the source give for `Cn1nc(C(=O)NCc2ccc(Cl)s2)c2c1C(=O)N(CC1(S(=O)(=O)C3CC3)CC1)CC2` [Example 10, N-((5-Chlorothiophen-2-yl)methyl)-6-((1-(cyclopropylsulfonyl)cyclopropyl)methyl)-1-methyl-7-oxo-4,5,6,7-tetrahydro-1H-pyrazolo[3,4-c]pyridine-3-carboxamide] here?
**A.** The IC50 was 0.026 µM.

**Q.** And the EC50 (CMV; [1])?
**A.** The EC50 was 0.259 µM.

**Q.** Which IC50 (CMV-polymerase) does the source give for `Cc1cc(CNC(=O)c2nn(C)c3c2CCN(CC2(S(=O)(=O)C4CC4)CC2)C3=O)ccc1C#N` [Example 11, N-(4-Cyano-3-methylbenzyl)-6-((1-(cyclopropylsulfonyl)cyclopropyl)methyl)-1-methyl-7-oxo-4,5,6,7-tetrahydro-1H-pyrazolo[3,4-c]pyridine-3-carboxamide] here?
**A.** The IC50 was 0.017 µM.

**Q.** What about the EC50 (CMV; [1]) of the same compound?
**A.** Its EC50 is 0.214 µM.

**Q.** How did the EC50 (CMV; [1]) turn out when `Cn1nc(C(=O)OCc2ccc(C#N)cc2)c2c1C(=O)N(CC1(S(=O)(=O)C3CC3)CC1)CC2` [Example 24, 4-cyanobenzyl 6-((1-(cyclopropylsulfonyl)cyclopropyl)methyl)-1-methyl-7-oxo-4,5,6,7-tetrahydro-1H-pyrazolo[3,4-c]pyridine-3-carboxylate] was run?
**A.** Its EC50 is 0.197 µM.

**Q.** For `N#Cc1ccc(CNC(=O)c2n[nH]c3c2CCN(CC2(S(=O)(=O)C4CC4)CC2)C3=O)cc1` [Example 45, N-(4-Cyanobenzyl)-6-((1-(cyclopropylsulfonyl)cyclopropyl)methyl)-7-oxo-4,5,6,7-tetrahydro-1H-pyrazolo[3,4-c]pyridine-3-carboxamide], which EC50 (CMV; [2]) is on record?
**A.** The EC50 was 0.146 µM.

**Q.** How did the EC50 (CMV; [2]) turn out when `Cn1nc(C(=O)NCc2ccc(C#N)cc2)c2c1C(=O)N(CC1(S(=O)(=O)C(C)(C)COCCO)CC1)CC2` [Example 87, N-(4-Cyanobenzyl)-6-((1-((1-(2-hydroxyethoxy)-2-methylpropan-2-yl)sulfonyl)cyclopropyl)methyl)-1-methyl-7-oxo-4,5,6,7-tetrahydro-1H-pyrazolo[3,4-c]pyridine-3-carboxamide] was run?
**A.** The EC50 was 0.044 µM.

**Q.** For `CN(C(C)(CO)CO)S(=O)(=O)C1(CN2CCc3c(C(=O)NCc4ccc(Cl)cc4)nn(C)c3C2=O)CC1` [Example 154, N-(4-chlorobenzyl)-6-((1-(N-(1,3-dihydroxy-2-methylpropan-2-yl)-N-methylsulfamoyl)cyclopropyl)methyl)-1-methyl-7-oxo-4,5,6,7-tetrahydro-1H-pyrazolo[3,4-c]pyridine-3-carboxamide], which EC50 (CMV; [1]) is on record?
**A.** Its EC50 is 0.083 µM.

**Q.** With `Cn1nc(C(=O)NCc2ccc(Cl)cc2)c2c1C(=O)N(CC1(S(=O)(=O)C(C)(CN)CO)CC1)CC2` (stereo not shown) [Example 186, 6-((1-((1-Amino-3-hydroxy-2-methylpropan-2-yl)sulfonyl)cyclopropyl)methyl)-N-(4-chlorobenzyl)-1-methyl-7-oxo-4,5,6,7-tetrahydro-1H-pyrazolo[3,4-c]pyridine-3-carboxamide] as the compound, how does the EC50 (CMV; Human betaherpesvirus 5, 72 h, NN-NHDF cells, MOI 1, 72 hrs, read-out: CMV-Luc Cellular EC50) read?
**A.** Its EC50 is 0.09 µM.
